Results published in US20250281629A1, “COMPOSITIONS AND METHODS FOR ANTI-PHOSPHOCHOLINE ACTIVE IMMUNOTHERAPY” (Duke University, priority 2022, published 2025).
Where no end group is shown, it is not given here. C11H22NO6P = phosphorylcholine group attached via 2-methacryloyloxyethyl phosphorylcholine

How the values were obtained:
[1] = system: CD4^+ T-cell depleted mice; assay: Anti-PC responses in CD4+ T-cell depleted mice; assay type: in vivo, mouse; conditions: for anti-PC IgM in the absence of CD4+ T cells: anti-CD4 antibody; for main anti-PC IgG subclass in CD4+ T cell-depleted mice: week 3
Experimental: Detection of Anti-PC Antibody Responses via ELISA. Anti-PC antibody responses in serum collected from the submandibular vein in mice were measured using ELISA. Briefly, plates were coated with 20 μg/mL PC-BSA (Biosearch Technologies, PC-1011-10) in 1×PBS or just 1×PBS at 4° C. overnight. The next day, the plates were washed using 1×PBST (1×PBS with 0.05% Tween 20) and then blocked three times with Superblock blocking buffer solution (Thermo Fisher, 37515). Serum diluted from 1:10^2 to 1:10^5 in 1% BSA in 1×PBST was the added to the plate and allowed to incubate for 2 h at room temperature. Anti-PC IgG was detected using HRP-conjugated Fcγ fragment-specific goat anti-mouse IgG (Jackson Immuno Research, 15-035-071). IgG subclasses and IgM anti-PC antibodies were detected using Southern Biotech HRP-conjugated goat anti-mouse antibodies (IgG1, IgG2b, IgG2c, IgG3, & IgM: 5300-05B). Area under the curve (AUC) measurements were calculated using background-subtracted absorbance values at dilutions from 1:10^2 to 1:10^5. Antibody titers were defined using an absorbance cutoff above background of 0.2 OD, where titer 2 represents an OD value greater than 0.2 at 1:10^2 dilution and so on up to titer 5 at 1:10^5 dilution.
T Cell ELISpot. T-cell responses were measured using ELISpot. Mice were euthanized 6 days after booster immunization and splenocytes were isolated using Lympholyte-M (Cedarlane, c15031). Splenocytes were stimulated with either media (negative control), Concanavalin A (ConA) (Sigma, C5275) (positive control), or PADRE peptide (1 μM) and then plated at 250,000 cells/well on IL-4 and IFN-γ capture antibody-coated 96-well ELISpot plates (Millipore, MSIPS4510). IL-4 (BD, 551878) and IFNγ (BD, 551881) detection antibodies followed by streptavidin-alkaline phosphatase (Mabtech, 3310-0) and Sigmafast BCIP/NBT (Sigma, B5655) were used to develop cell spots. The quantification of cell spots was then outsourced to Zellnet Consulting Services which uses a Zeiss KS ELISPOT reader. ELISpot counts shown represent spot counts after the subtraction of spots in the negative control wells for each sample.
CD4 T cell Depletion. Mice were given 200 μg of either anti-mouse CD4 (InVivoMAb, clone GK1.5, BioXCell, BE0003-1) or isotype control (InVivoMAb rat IgG2b isotype control anti-KLH, clone LTF-2, BioXCell, BE0090) antibodies in 100 μL InVivoPure pH 6.5 dilution buffer (BioXCell, IP0065) via i.p. injection at days −3, −1, 3, 7, 11, 15, and 19. On days 0 and 22, cells from the spleen, draining lymph nodes (axial, brachial, and inguinal), and mesenteric lymph nodes of unimmunized mice were isolated via physical separation using a 70 μm filter in order to verify CD4^+ T-cell depletion (FIGS. 11A-11E, representative flow cytometry shown in FIG. 12). The cells were treated with mouse BD Fc Block (Clone: 2.4G2) (BD Biosciences, 553142) in flow buffer on ice for 30 min and then washed and stained with antibodies against the following markers: CD4-FITC (Clone: GK1.5) (BD Biosciences, 557307), CD45-PE (Clone: 30-F11) (BioLegend, 103106), CD8a-PE-Cy7 (Clone: 53-6.7 (BD Biosciences, 552877), and CD3e-BV605 (Clone: 145-2C11) (BD Biosciences, 563004) in flow buffer for 30 min on ice. Cells were then washed in flow buffer and stained with DAPI. Flow cytometry was conducted on a BD FACSCanto II cytometer and the results were analyzed using FlowJo software. To determine the importance of PADRE T-cell epitope inclusion in immunizations, anti-CD4 or isotype control antibody-administered mice were immunized on days 0 and 14, with anti-PC antibodies measured at days 0, 7, and 22 via ELISA and T-cell responses measured on day 22 via ELISpot.

occludin = assay: Immunofluorescence of colon tight junction protein occludin; assay type: in vivo, mouse; conditions: week 5; vs PBS control mice
Experimental: Immunofluorescence Imaging and Analysis. Immunofluorescence was conducted on sections from proximal colon samples frozen in OCT and sectioned. Slides were first thawed and outlined with a hydrophobic pen (ImmEdge Hydrophobic Barrier PAP Pen, Vector Labs, H-4000) then fixed with 4% paraformaldehyde for 10 min at room temperature. The slides were washed three times with wash buffer (1×PBS+100 mM CaCl2+100 mM MgCl) for 10 min at room temperature then incubated in a blocking solution containing 0.3% Triton X-100 and 10% normal donkey serum in 1×PBS+100 mM CaCl2+100 mM MgCl for 1 h at room temperature. The slides were then incubated in the primary antibodies (rat anti-ZO-1, clone R40.70, Fisher Scientific, MABT11; rabbit anti-occludin, clone EPR20992, Abcam, ab216327) diluted 1:100 in the blocking solution overnight at 4° C. The slides were washed three times with wash buffer for 10 min at room temperature. They were then incubated in the secondary antibodies (donkey anti-rat Alexa Fluor™ 568, Thermo Fisher, A78946; donkey anti-rabbit Alexa Fluor™ 647, Thermo Fisher, A31573) and nuclear marker DAPI diluted 1:500 in the blocking solution for 2 h at room temperature. […] The intensities of each marker were quantified using ImageJ and expressed as the integrated density of the fluorescent signal normalized to the area fraction of DAPI positive pixels. […]

[2] = i.p. day 0 and 14, with PADRE-Q11 and CpG

In the case of “(C11H22NO6P)n-CCCCSGSG-QQKFQFQFEQQ-NH2 (CCCCSGSGQQKFQFQFEQQ-NH2; not fully specified; cysteine pairing not given here; also: phosphorylcholine groups (C11H22NO6P) n=1-4, attachment not placed) [PCM-Q11, linear multi-PC conjugate]”, the “anti-PC IgM, isotype control vs CD4-depleted” value [1, 2] is reported as “significantly greater for PCM-Q11 immunizations when CD4^+ T cells were present”, the “total anti-PC IgG production, dependence on CD4+ T cells” value [1, 2] is reported as “reliant on CD4^+ T cells” and the “anti-PC IgM in the absence of CD4+ T cells” value [1, 2] is reported as “generated by both immunizations in the absence of CD4^+ T cells”. For the same substance, the “main anti-PC IgG subclass in CD4+ T cell-depleted mice” value [1] was “IgG3” and the “occludin levels in colon after immunization” value (occludin) was “not significantly different”.

With “C11H22NO6P-CSGSG-QQKFQFQFEQQ-NH2 (C(C11H22NO6P)SGSGQQKFQFQFEQQ-NH2) [PC-Q11, phosphodiester PC-Q11]” the “total anti-PC IgG production, dependence on CD4+ T cells” value [1, 2] was “reliant on CD4^+ T cells”, the “anti-PC IgM in the absence of CD4+ T cells” value [1, 2] was “generated by both immunizations in the absence of CD4^+ T cells” and the “main anti-PC IgG subclass in CD4+ T cell-depleted mice” value [1] was “IgG3”.
